Measured values taken from patent US7060836B2, “Lactams as tachykinin antagonists” (Pfizer, Inc, priority 2001, dated 2006).

Biological target: T1, human NK2 receptor (Homo sapiens, UniProt P21452)
T1 construct: expressed in transfected cells; host or cells: Chinese hamster ovary (CHO) cells, membranes
T1 sequence (P21452 1-398): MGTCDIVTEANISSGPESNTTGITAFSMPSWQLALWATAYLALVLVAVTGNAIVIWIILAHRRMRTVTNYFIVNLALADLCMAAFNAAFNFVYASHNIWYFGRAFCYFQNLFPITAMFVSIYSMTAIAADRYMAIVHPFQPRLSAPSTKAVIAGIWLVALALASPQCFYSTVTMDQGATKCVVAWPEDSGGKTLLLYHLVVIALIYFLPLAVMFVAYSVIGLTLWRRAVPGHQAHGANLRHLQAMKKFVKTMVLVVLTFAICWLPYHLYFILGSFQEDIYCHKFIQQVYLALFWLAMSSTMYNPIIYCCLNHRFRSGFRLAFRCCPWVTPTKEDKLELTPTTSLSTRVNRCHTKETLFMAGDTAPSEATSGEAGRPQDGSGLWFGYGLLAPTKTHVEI
Test: Competition with [3H] or [125I] NKA for binding to membranes of CHO cells expressing the cloned human NK2 receptor
Conditions: membranes from CHO cells expressing cloned human NK2 receptor, 90 min, 25° C.
Protocol: The affinity of the compounds of formula (I), and their salts, for the human NK2 receptor can be assessed in vitro by testing their ability to compete with [^3H] or [^125I] NKA (neurokinin A) for binding to membranes prepared from Chinese hamster ovary cells expressing the cloned human NK2 receptor using a modification of the method described in McLean, S. et al., J. Pharm. Exp. Ther., 267, 472–9 (1993). The membranes are incubated (90 min, 25° C.) with [^3H] or [^125I] NKA and a range of concentrations of the test compound. Non specific binding was determined in the presence of 1 μM SR-48968 (N-[(2S)-4-[4-(acetylamino)-4-phenyl-1-piperidinyl]-2-(3,4-dichlorophenyl)butyl]-N-methyl benzamide).

SMILES	Ki [nM]
COC1CCN(CC[C@]2(c3ccc(Cl)c(Cl)c3)CCC(=O)N(c3ccccn3)C2)CC1 [Example 61, (5S)-5-(3,4-Dichlorophenyl)-5-[2-(4-methoxy-1-piperidinyl)ethyl]-1-(2-pyridinyl)-2-piperidinone]	12
O=C1CC[C@](CCN2CC(N3CCC(O)CC3)C2)(c2ccc(Cl)c(Cl)c2)CN1c1ccccn1 [Example 73, (5S)-5-(3,4-Dichlorophenyl)-5-{2-[3-(4-hydroxy-1-piperidinyl)-1-azetidinyl]ethyl}-1-(2-pyridinyl)-2-piperidinone]	2.2
CC(=O)NC1(c2ccccc2)CCN(CC[C@]2(c3ccc(Cl)c(Cl)c3)CCC(=O)N(c3ccccn3)C2)CC1 [Example 90, N-(1-{2-[(3S)-3-(3,4-Dichlorophenyl)-6-oxo-1-(2-pyridinyl)piperidinyl]ethyl}-4-phenyl-4-piperidinyl)-acetamide]	2.4
O=C1CC[C@](CCN2CCC(O)(c3ccccn3)CC2)(c2ccc(Cl)c(Cl)c2)CN1c1ccccn1 [Example 92, (5S)-5-(3,4-Dichlorophenyl)-5-{2-[4-hydroxy-4-(2-pyridyl)-1-piperidinyl]ethyl}-1-(2-pyridinyl)-2-piperidinone]	7
COc1cccc(N2C[C@@](CCN3CC(N4CCOCC4)C3)(c3ccc(Cl)c(Cl)c3)CCC2=O)n1 [Example 119, (5S)-5-(3,4-Dichlorophenyl)-1-(6-methoxy-2-pyridinyl)-5-{2-[3-(4-morpholinyl)-1-azetidinyl]ethyl}-2-piperidinone]	5.4
Cc1cccc(N2C[C@@](CCN3CC(N4CCOCC4)C3)(c3ccc(Cl)c(Cl)c3)CCC2=O)n1 [Example 131, (5S)-5-(3,4-Dichlorophenyl)-1-(6-methyl-2-pyridinyl)-5-{2-[3-(4-morpholinyl)-1-azetidinyl]ethyl}-2-piperidinone]	3.8
Cc1cccc(N2C[C@@](CCN3CCC(O)(c4ccccc4)CC3)(c3ccc(Cl)c(Cl)c3)CCC2=O)n1 [Example 134, (5S)-5-(3,4-Dichlorophenyl)-1-(6-methyl-2-pyridinyl)-5-{{2-[4-hydroxy-4-phenyl]-1-piperidinyl}ethyl}-2-piperidinone]	1.9
Cc1cccc(N2C[C@@](CCN3CC(N4CCC(O)CC4)C3)(c3ccc(Cl)c(Cl)c3)CCC2=O)n1 [Example 135a, (5S)-5-(3,4-Dichlorophenyl)-1-(6-methyl-2-pyridinyl)-5-{2-[3-(4-hydroxypiperidinyl)-1-azetidinyl]ethyl}-2-piperidinone]	3.7
CC(=O)N(C)C1CCN(CC[C@]2(c3ccc(Cl)c(Cl)c3)CCC(=O)N(c3ccccn3)C2)CC1 [Example 158, N-(1-{2-[(3S)-3-(3,4-Dichlorophenyl)-6-oxo-1-(2-pyridinyl)piperidinyl]ethyl}-4-piperidinyl)-N-methylacetamide]	8
Cc1cccc(N2CC(CCN3CC(N4CCC(=O)CC4)C3)(c3ccc(Cl)c(Cl)c3)CCC2=O)n1 (centres unmarked) [Example 168, 5-(3,4-Dichlorophenyl)-1-(6-methyl-2-pyridinyl)-5-{2-[3-(4-oxo-1-piperidinyl)-1-azetidinyl]ethyl}-2-piperidinone]	2.6

Test system: not given
Test: not given
Conditions: not given

SMILES	melting point [°C]
Cc1cccc(N2C[C@@](CCN3CC(N4CCC(O)CC4)C3)(c3ccc(Cl)c(Cl)c3)CCC2=O)n1.O=C(O)/C=C/C(=O)O	175.5 to 177
